The assay concerns the target melatonin receptor. The assay can be described thus: Inhibition of 2-[^125 I]iodomelatonin binding in forebrain homogenate of 7-day-old chicken. On the set-up: species or system chicken (white leghorn). As to conditions: 80 pM 2-[^125 I]iodomelatonin, 90 minutes at 25° C., 7-day-old chicken forebrain homogenate, log-probit analysis; read-out: IC50, action of inhibiting 2-[^125 I]iodomelatonin binding. The procedure:
The farebrains of 7-day-old chicken (white leghorn) were homogenized with ice-cold assay buffer (50 mM Tris-HCl, pH 7.7 at 25° C.) and centrifuged at 44,000×g for 10 minutes at 4° C. The pellet was washed once with the same buffer and stored at -30° C. until use. For the assay, the frozen tissue pellet was thawed and homogenized with the assay buffer to make a protein concentration of 0.3-0.4 mg/ml. […] The reaction was terminated by adding 3 ml of ice-cold assay buffer immediately followed by vacuum filtration on Whatman GF/B which was further washed twice with 3 ml of ice-cold assay buffer. The radioactivity on the filter was determined by means of γ-counter.

A word on the IC50: it is the concentration that inhibits the measured activity by half. On to `CC(=O)NCCC1CCCc2ccc(O)cc21` (stereo not drawn) [compound 35], for which the IC50 came to 0.95 nM.

As to `COc1ccc2c(c1)/C(=C/CNC(=O)C(F)(F)F)CCC2` [compound 33], the half-maximal inhibitory concentration (IC50) was found to be 0.72 nM.

Turning to `COc1ccc2c(c1)[C@H](CCNC(C)=O)CC2` [compound 66], the IC50 was 0.7 nM.

(Values after patent US6235789A, “Benzocycloalkene compounds, their production and use” (Takeda Chemical Industries, Ltd., priority 1994, dated 2001).)
